Results: patent US6472348B1, “Pyridone derivatives and herbicides” (Kumiai Chemical Industry Co., Ltd., priority 1996, dated 2002)

Key:
Type in all cases: in vivo
[1] = tested on: Diaitaria ciliaris (Di); experiment: Test Example 5: crop plant selectivity by upland field soil treatment (wheat), herbicidal effects; conditions: 21st day after application
Description: (§1) (Test on Crop Plant Selectivity by Upland Field Soil Treatment)
In a plastic pot (surface area: 600 cm^2) filled with sand, wheat (Tr), Diaitaria ciliaris (Di), green foxtail (Se), pale smartweed (Po), slender amaranth (Am), common lambsquarters (Ch) and China jute (Ab) were sown and covered with soil. […] The plants were then cultured in a green house, and the evaluation of the herbicidal effects and phytotoxicity was conducted on the 21st day after the application in accordance with the standards as identified in Table 47. Symbol—represents “not tested”.

[2] = tested on: Diaitaria ciliaris (Di); experiment: Test Example 6: crop plant selectivity by upland field soil treatment (soybean), herbicidal effects; conditions: 21st day after application
Description: as §1
(§2) In a plastic pot (surface area: 600 cm^2) filled with sand, soybean (Gl), Diaitaria ciliaris (Di), green foxtail (Se), Johnsongrass (So), pale smartweed (Po), slender amaranth (Am), common lambsquarters (Ch) and China jute (Ab) were sown and covered with soil. […] The plants were then cultured in a green house, and the evaluation of the herbicidal effects and phytotoxicity was conducted on the 21st day after the application in accordance with the standards as identified in Table 47. Symbol—represents “not tested”.

[3] = tested on: Johnsongrass (So); experiment: as above; conditions: 21st day after application
Description: as §1, §2

[4] = tested on: Diaitaria ciliaris (Di); experiment: Test Example 4: crop plant selectivity by upland field soil treatment (cotton), herbicidal effects; conditions: evaluated 21st day after application
Method in brief: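 Seeds of cotton and several weed species were sown in sand-filled pots and covered with soil before soil treatment with the test compound. Plants were grown in a greenhouse, and herbicidal effect and crop phytotoxicity were scored against set standards 21 days after application.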

[5] = tested on: cotton (Go); experiment: Test Example 8: crop plant selectivity by upland field foliage treatment (cotton), phytotoxicity; conditions: dose 1.6 g ai/10a, 14th day after treatment
Description: (§3) (Test on Crop Plant Selectivity by Upland Field Foliage Treatment)
(§4) In a plastic pot (surface area: 600 cm^2) filled with sand, cotton (Go), pale smartweed (Po), slender amaranth (Am), common lambsquarters (Ch) and China jute (Ab) were sown and cultured in a green house for 2 weeks. […] The plants were then cultured in a green house, and the evaluation of the herbicidal effects and phytotoxicity was conducted on the 14th day after the treatment in accordance with the standards as identified in Table 47.

[6] = tested on: pale smartweed (Po); experiment: Test Example 8: crop plant selectivity by upland field foliage treatment (cotton), herbicidal effects; conditions: dose 1.6 g ai/10a, 14th day after treatment
Description: as §3, §4

[7] = tested on: common lambsquarters (Ch); experiment: as above; conditions: dose 1.6 g ai/10a, 14th day after treatment
Description: as §3, §4

[8] = tested on: slender amaranth (Am); experiment: as above; conditions: dose 1.6 g ai/10a, 14th day after treatment
Description: as §3, §4

[9] = tested on: China jute (Ab); experiment: as above; conditions: dose 1.6 g ai/10a, 14th day after treatment
Description: as §3, §4

[10] = tested on: pale smartweed (Po); experiment: Test Example 10: crop plant selectivity by upland field foliage treatment (soybean), herbicidal effects; conditions: dose 1.6 g ai/10a, 14th day after treatment
Method in brief: (§5)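 Soybean and weeds were grown in sand in a greenhouse for 2 weeks before foliar treatment. Herbicidal effect on weeds and phytotoxicity on soybean were scored on day 14 after treatment against a graded scale.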

[11] = tested on: slender amaranth (Am); experiment: as above; conditions: dose 1.6 g ai/10a, 14th day after treatment
Method in brief: as §5

## Cn1cc(-c2cc(Oc3ccccc3)c(Cl)cc2F)c(=O)cc1C(F)(F)F [Compound No. 6-19, 5-(4-chloro-2-fluoro-5-phenoxyphenyl)-1-methyl-2-trifluoromethyl-4(1H)-pyridone]
[1]; dose 1.6 g ai/10a
  Herbicidal effects Di: 5
[1]; dose 6.3 g ai/10a
  Herbicidal effects Di: 5
[2]; dose 1.6 g ai/10a
  Herbicidal effects Di: 5
[2]; dose 6.3 g ai/10a
  Herbicidal effects Di: 5
[3]; dose 1.6 g ai/10a
  Herbicidal effects So: 4
[3]; dose 6.3 g ai/10a
  Herbicidal effects So: 5
[4]; dose 1.6 g ai/10 a
  Herbicidal effects Di: 5
[4]; dose 6.3 g ai/10 a
  Herbicidal effects Di: 5

## C=CCN1C(=O)COc2cc(F)c(-c3ccc(C(F)(F)F)n(C)c3=O)cc21 [Compound 2-7]
[1]; dose 1.6 g ai/10a
  Herbicidal effects Di: 5
[2]; dose 1.6 g ai/10a
  Herbicidal effects Di: 5
[2]; dose 6.3 g ai/10a
  Herbicidal effects Di: 5
[3]; dose 1.6 g ai/10a
  Herbicidal effects So: 5
[3]; dose 6.3 g ai/10a
  Herbicidal effects So: 5
[4]; dose 1.6 g ai/10 a
  Herbicidal effects Di: 5
[4]; dose 6.3 g ai/10 a
  Herbicidal effects Di: 5

## C=CC(C)Oc1cc(-c2ccc(C(F)(F)F)n(C)c2=O)c(F)cc1Cl (stereo not drawn) [Compound 1-182]
[5]
  Phytotoxicity Go: 2
[6]
  Herbicidal effects Po: 5
[7]
  Herbicidal effects Ch: 5
[8]
  Herbicidal effects Am: 5
[9]
  Herbicidal effects Ab: 5

## CSCOc1cc(-c2ccc(C(F)(F)F)n(C)c2=O)c(F)cc1Cl [Compound 1-208]
[10]
  Herbicidal effects Po: 5
[11]
  Herbicidal effects Am: 5

## C#CCN1C(=O)COc2cc(F)c(-c3ccc(C(F)(F)F)n(C)c3=O)cc21 [Compound No. 2-1, 3-[7-fluoro-2,3-dihydro-4-(2-propynyl)-1,4-benzoxazin-3-on-6-yl]-1-methyl-6-trifluoromethyl-2(1H)-pyridone]
[1]; dose 1.6 g ai/10a
  Herbicidal effects Di: 5
[2]; dose 1.6 g ai/10a
  Herbicidal effects Di: 5
[2]; dose 6.3 g ai/10a
  Herbicidal effects Di: 5
[3]; dose 1.6 g ai/10a
  Herbicidal effects So: 5
[3]; dose 6.3 g ai/10a
  Herbicidal effects So: 5
[4]; dose 1.6 g ai/10 a
  Herbicidal effects Di: 5

## CCCc1cc2c(-c3ccc(C(F)(F)F)n(C)c3=O)c(F)cc(Cl)c2o1 [Compound 4-3]
[10]
  Herbicidal effects Po: 5
[11]
  Herbicidal effects Am: 5

## CCON=Cc1cc(-c2ccc(C(F)(F)F)n(C)c2=O)c(F)cc1Cl [Compound 1-187]
[5]
  Phytotoxicity Go: 2
[10]
  Herbicidal effects Po: 5
[11]
  Herbicidal effects Am: 5
[6]
  Herbicidal effects Po: 5
[7]
  Herbicidal effects Ch: 5
[8]
  Herbicidal effects Am: 5
[9]
  Herbicidal effects Ab: 5

## Cn1c(C(F)(F)F)ccc(-c2cc(C#N)c(Cl)cc2F)c1=O [Compound No. 1-119, 3-(4-chloro-5-cyano-2-fluorophenyl)-1-methyl-6-trifluoromethyl-2(1H)-pyridone]
[10]
  Herbicidal effects Po: 5
[11]
  Herbicidal effects Am: 5

## CCc1cc2c(Cl)cc(F)c(-c3ccc(C(F)(F)F)n(C)c3=O)c2o1 [Compound 5-2]
[10]
  Herbicidal effects Po: 5
[11]
  Herbicidal effects Am: 5

## C#CC(C)Oc1cc(-c2cn(C)c(C(F)(F)F)cc2=O)c(F)cc1Cl (racemic) [Compound 6-10]
[1]; dose 1.6 g ai/10a
  Herbicidal effects Di: 5
[2]; dose 1.6 g ai/10a
  Herbicidal effects Di: 5
[3]; dose 1.6 g ai/10a
  Herbicidal effects So: 5
[4]; dose 1.6 g ai/10 a
  Herbicidal effects Di: 5
[4]; dose 6.3 g ai/10 a
  Herbicidal effects Di: 5

## CCCC(=O)c1cc(-c2ccc(C(F)(F)F)n(C)c2=O)c(F)cc1Cl [Compound No. 1-194, 3-[4-chloro-2-fluoro-5-(1-oxobutyl)phenyl]-1-methyl-6-trifluoromethyl-2(1H)-pyridone]
[5]
  Phytotoxicity Go: 2
[6]
  Herbicidal effects Po: 5
[7]
  Herbicidal effects Ch: 5
[8]
  Herbicidal effects Am: 5
[9]
  Herbicidal effects Ab: 5

## Cn1c(C(F)(F)F)ccc(-c2cc(OCCCl)c(Cl)cc2F)c1=O [1-171]
[10]
  Herbicidal effects Po: 5
[11]
  Herbicidal effects Am: 5

## Cc1cc2c(-c3cn(C)c(C(F)(F)F)cc3=O)c(F)cc(Cl)c2o1 [Compound No. 9-1, 5-(7-chloro-5-fluoro-2-methylbenzofuran-4-yl)-1-methyl-2-trifluoromethyl-4(1H)-pyridone]
[1]; dose 1.6 g ai/10a
  Herbicidal effects Di: 5
[1]; dose 6.3 g ai/10a
  Herbicidal effects Di: 5
[4]; dose 1.6 g ai/10 a
  Herbicidal effects Di: 5
[4]; dose 6.3 g ai/10 a
  Herbicidal effects Di: 5
